Measurements as given in the NIST ThermoML archive (doi:10.1021/je060305e).
± gives the expanded uncertainty stated by the source.

Assay: activity coefficient (dimensionless); of the first substance listed, at infinite dilution; xn = mol fraction of the nth substance listed
Details: Liquid, Chromatography, x1 = 0

SMILES | activity coefficient (303.15 K) | activity coefficient (313.15 K) | activity coefficient (323.15 K) | activity coefficient (333.15 K) | activity coefficient (343.15 K) | activity coefficient (353.15 K) | activity coefficient (363.15 K)
CCCO [propan-1-ol] + CCCCn1cc[n+](C)c1.F[B-](F)(F)F | 2.8 ± 0.24 | 2.48 ± 0.21 | 2.23 ± 0.19 | 1.96 ± 0.17 | 1.64 ± 0.14 |  | 
CCCCO [butan-1-ol] + CCCCn1cc[n+](C)c1.F[B-](F)(F)F | 4.14 ± 0.36 | 3.67 ± 0.32 | 3.3 ± 0.28 | 2.98 ± 0.26 | 2.72 ± 0.23 |  | 
CCCCCO [pentan-1-ol] + CCCCn1cc[n+](C)c1.F[B-](F)(F)F | 6.96 ± 0.6 | 5.91 ± 0.51 | 5.15 ± 0.45 | 4.56 ± 0.39 | 4 ± 0.34 |  | 
ClC(Cl)Cl [trichloromethane] + CCCCn1cc[n+](C)c1.F[B-](F)(F)F | 1.11 ± 0.092 | 1.21 ± 0.1 | 1.28 ± 0.11 | 1.36 ± 0.11 | 1.43 ± 0.12 |  | 
CC#N [acetonitrile] + CCCCn1cc[n+](C)c1.F[B-](F)(F)F | 0.734 ± 0.062 | 0.742 ± 0.063 | 0.752 ± 0.063 | 0.757 ± 0.064 | 0.768 ± 0.065 |  | 
CC(C)CCO [3-methylbutan-1-ol] + CCCCn1cc[n+](C)c1.F[B-](F)(F)F | 6.63 ± 0.57 | 5.74 ± 0.49 | 5.08 ± 0.44 | 4.53 ± 0.39 | 4.08 ± 0.35 |  | 
CC(C)CO [2-methyl-1-propanol] + CCCCn1cc[n+](C)c1.F[B-](F)(F)F | 2.63 ± 0.23 | 2.22 ± 0.19 | 1.86 ± 0.16 | 1.66 ± 0.14 | 1.53 ± 0.13 |  | 
CC(C)=O [acetone] + CCCCn1cc[n+](C)c1.F[B-](F)(F)F | 1.16 ± 0.096 | 1.19 ± 0.098 | 1.21 ± 0.1 | 1.23 ± 0.1 | 1.25 ± 0.1 |  | 
CCOC(C)=O [ethyl acetate] + CCCCn1cc[n+](C)c1.F[B-](F)(F)F | 3.3 ± 0.28 | 3.34 ± 0.29 | 3.36 ± 0.29 | 3.39 ± 0.29 | 3.41 ± 0.29 |  | 
CCC(C)O (stereo not given) [butan-2-ol] + CCCCn1cc[n+](C)c1.F[B-](F)(F)F | 3.85 ± 0.33 | 3.44 ± 0.3 | 3.12 ± 0.27 | 2.79 ± 0.24 | 2.56 ± 0.22 |  | 
C1COCCO1 [1,4-dioxane] + CCCCn1cc[n+](C)c1.F[B-](F)(F)F | 1.53 ± 0.13 | 1.54 ± 0.13 | 1.55 ± 0.13 | 1.56 ± 0.13 | 1.57 ± 0.13 |  | 
CCO [ethanol] + CCCCn1cc[n+](C)c1.F[B-](F)(F)F | 1.59 ± 0.14 | 1.39 ± 0.12 | 1.27 ± 0.11 | 1.17 ± 0.097 | 1.07 ± 0.088 |  | 
CO [methanol] + CCCCn1cc[n+](C)c1.F[B-](F)(F)F | 0.813 ± 0.068 | 0.716 ± 0.061 | 0.646 ± 0.056 | 0.596 ± 0.053 | 0.529 ± 0.048 |  | 
CC(C)O [propan-2-ol] + CCCCn1cc[n+](C)c1.F[B-](F)(F)F | 2.63 ± 0.23 | 2.22 ± 0.19 | 1.86 ± 0.16 | 1.66 ± 0.14 | 1.53 ± 0.13 |  | 
O=C1CCCCC1 [cyclohexanone] + CCCCn1cc[n+](C)c1.F[B-](F)(F)F |  |  | 2.64 ± 0.23 | 2.62 ± 0.23 | 2.61 ± 0.23 | 2.58 ± 0.22 | 2.57 ± 0.22
ClC(Cl)(Cl)Cl [tetrachloromethane] + CCCCn1cc[n+](C)c1.F[B-](F)(F)F | 5.73 ± 0.49 | 6.09 ± 0.53 | 6.27 ± 0.54 | 6.42 ± 0.55 | 6.52 ± 0.56 |  | 
ClCCl [dichloromethane] + CCCCn1cc[n+](C)c1.F[B-](F)(F)F | 1.1 ± 0.091 | 1.15 ± 0.095 | 1.2 ± 0.099 | 1.24 ± 0.1 | 1.28 ± 0.11 |  | 
